Where “and” joins values, the source holds several entries; their conditions need not be identical. Equal entries are not always repeated.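 The compound was tested at five concentrations on cells cultured in 96-well plates, with a 48-hour exposure period. Here, GI50 denotes the concentration required for 50% inhibition of growth. Definition used: TGI = concentration required for complete inhibition of growth.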

This note sets out measurements from PubChem BioAssay (NCI).

Some test systems named below: U251 CNS; NCI-H460 lung; RPMI-8226 leukemia; SNB-75 CNS; SF-295 CNS; SF-268 CNS; SK-MEL-5 melanoma; RXF 393 renal; SN12C renal; SF-539 CNS.
Holding throughout (assay): DTP human tumour cell line panel, 48 h

Usually TGI stands for the concentration at which net growth stops. A lower TGI goes with more potent growth arrest. On to `COc1ccc(C2CC(C)=Nc3c([nH]c(=S)[nH]c3=O)N2)cc1` (stereo not given), for which the TGI with U251 CNS is 32.4 µM; in the assay on NCI-H460 lung it was 33.3 µM; with RPMI-8226 leukemia, 50.3 µM; in the assay on SNB-75 CNS, 70.1 µM; in the assay with SF-295 CNS, 48.5 µM; in the assay with SF-268 CNS it was over 100 µM. The total growth inhibition concentration (TGI) in the assay on SK-MEL-5 melanoma worked out at 32.5 µM; with RXF 393 renal, 34.7 µM; with SN12C renal it was 36.7 µM; in the assay with SF-539 CNS, 50.8 µM.
On to `C1CCN2CC34CC(CC5CCCN(C6CCCC3N6)C54)C2C1` (stereo not given), for which the concentration for total growth inhibition (TGI) in the assay on U251 CNS, in the assay on NCI-H460 lung, in the assay with RPMI-8226 leukemia, with SNB-75 CNS, in the assay on SF-295 CNS and in the assay with SF-268 CNS was over 100 µM in each case. The concentration for total growth inhibition (TGI) in the assay on SK-MEL-5 melanoma, with RXF 393 renal, in the assay on SN12C renal and in the assay on SF-539 CNS was over 100 µM each time.
Turning to `CCCC/C(C)=N/NC(N)=S`, the TGI in the assay on U251 CNS, in the assay on NCI-H460 lung, in the assay with RPMI-8226 leukemia, with SNB-75 CNS, in the assay on SF-295 CNS and in the assay with SF-268 CNS was over 100 µM throughout. Further, the total growth inhibition concentration (TGI) with SK-MEL-5 melanoma, with RXF 393 renal, with SN12C renal and in the assay on SF-539 CNS was over 100 µM throughout.
Consider `N#CCc1nc2c(s1)C(=O)c1ccccc1C2=O`, for which the total growth inhibition concentration (TGI) in the assay with U251 CNS worked out at 31.1 µM; in the assay on NCI-H460 lung, 47.6 µM; with RPMI-8226 leukemia, 46.6 µM; in the assay with SNB-75 CNS it was 49.3 µM; in the assay with SF-295 CNS it was 34.5 µM; in the assay on SF-268 CNS it was 32.2 µM. Also, the concentration for total growth inhibition (TGI) was 23.7 µM in the assay with SK-MEL-5 melanoma, 49.4 µM with RXF 393 renal, 33.5 µM in the assay on SN12C renal and 28 µM in the assay on SF-539 CNS.
The GI50 is the concentration giving 50% growth inhibition. `Cc1cc(C#Cc2ccccc2)ccc1-n1c(/C=C/c2ccc(O)cc2)nc2ccccc2c1=O`: the GI50 in the assay with U251 CNS is 4.33 µM; in the assay on NCI-H460 lung, 2.22 µM; with RPMI-8226 leukemia it was 2.33 µM; with SNB-75 CNS it was 3.66 µM; with SF-295 CNS, 2.85 µM; with SF-268 CNS, 4.56 µM. Besides, the GI50 with SK-MEL-5 melanoma is 1.77 µM; in the assay on RXF 393 renal, 3.51 µM; in the assay on SN12C renal it was 3.77 µM; in the assay on SF-539 CNS it was 5.65 µM. Besides, the TGI was over 100 µM in the assay with U251 CNS; 6.18 µM in the assay on NCI-H460 lung; over 100 µM in the assay on RPMI-8226 leukemia; 38.4 µM in the assay on SNB-75 CNS; 13.6 µM in the assay on SF-295 CNS; over 100 µM in the assay with SF-268 CNS. Moreover, the TGI in the assay with SK-MEL-5 melanoma is 3.83 µM; with RXF 393 renal, over 100 µM; in the assay with SN12C renal it was 38.3 µM; in the assay with SF-539 CNS, over 100 µM.
In the case of `Cc1ccc(S(=O)(=O)ON=C2CC(c3ccccc3)N(C)C(c3ccccc3)C2)cc1` (stereo not given), the TGI in the assay with U251 CNS is 55.3 µM and 53.6 µM; with NCI-H460 lung, 44.1 µM and 52.7 µM; in the assay on RPMI-8226 leukemia it was 48.2 µM; in the assay with SNB-75 CNS it was 79.3 µM and 66.9 µM; with SF-295 CNS it was 52.4 µM and 65.5 µM; in the assay with SF-268 CNS, 51.8 µM and 51.1 µM. Further, the total growth inhibition concentration (TGI) is 32.5 µM and 31.8 µM with SK-MEL-5 melanoma; 48 µM and 71.6 µM with RXF 393 renal; 55 µM in the assay on SN12C renal; 36 µM with SF-539 CNS.
In the case of `CCOC(=O)c1cc2cc([N+](=O)[O-])ccc2oc1=O`, the concentration for total growth inhibition (TGI) with U251 CNS, with NCI-H460 lung, with RPMI-8226 leukemia, with SNB-75 CNS, in the assay on SF-295 CNS and in the assay on SF-268 CNS was over 100 µM in each case. Also, the total growth inhibition concentration (TGI) in the assay on SK-MEL-5 melanoma, in the assay with RXF 393 renal, in the assay on SN12C renal and with SF-539 CNS was over 100 µM throughout.
